In PubChem BioAssay (NCI) one finds TGI and GI50 data, which are given here for 11 compounds.

Common to all, as to assay: NCI anticancer screen, dose series, 48 h
Assay [1] deals with MOLT-4 leukemia.
Assay [2] deals with NCI-H23 lung.
The test system of assay [3] is MDA-MB-231 breast.
The subject of assay [4] is HOP-92 NSCLC.
Assay [5] has as its system A549 NSCLC.
In assay [6] the test system is RPMI-8226 leukemia.
The subject of assay [7] is HL-60(TB) leukemia.
In assay [8] the test system is PC-3 prostate.
Assay [9] relates to DU-145 prostate.
In assay [10] the test system is EKVX NSCLC.
In assay [11] the test system is SF-295 CNS.
Assay [12] has as its system HOP-62 NSCLC.

“And” between values parts separate entries of the source, which are not always exact repeats. Equal entries are not always repeated.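 Grown in 96-well plates, cells were treated for 48 hours with each compound at five concentrations. Insufficient inhibition: endpoint recorded as highest concentration tested. At the GI50, growth is halved. TGI: concentration producing complete growth inhibition.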 A value given as a limit tells only on which side of the number the result lay.

Regarding `CC1C[C@]2(C)C(=S)Nc3ccccc3[C@@H]2Nc2ccccc21` (stereo not given in full), the TGI in assay [1] is 56.1 µM; in [2], 33.9 µM; in assay [3], 26.3 µM; in assay [4], 25.2 µM; in assay [5] it was 37.8 µM; in assay [6] it was more than 100 µM. Also, the TGI stood at 77 µM in assay [7]; 35.7 µM in assay [8]; 17.5 µM in [9]; 57.5 µM in assay [10]; 37.9 µM in assay [11]; 31.8 µM in assay [12].
Regarding `CCOC(=O)CCC(NC(=O)c1ccc(Nc2nc3cc(C(F)(F)F)ccc3nc2-c2ccccc2)cc1)C(=O)OCC` (stereo not given), the TGI in assay [1], in assay [2], in assay [3], in assay [4], in assay [5] and in assay [6] was more than 100 µM in each case. The TGI in assay [7], in assay [8], in assay [9], in assay [10], in [11] and in assay [12] was more than 100 µM throughout.
As for `CC1(C)OCC(C2OC(N3O[C@H](CI)C[C@@H]3c3ccccc3)C3OC(C)(C)OC23)O1` (stereo not given in full), the TGI in [2], in assay [3], in assay [4], in [5], in [6] and in assay [7] was more than 100 µM throughout. For the same compound, the TGI in [8], in assay [9], in assay [10], in assay [11] and in assay [12] was more than 100 µM each time.
Regarding `Cn1c2nc3ccccc3c-2cc2ccccc21`, the GI50 in assay [1] was 1.38 µM and 2.97 µM; in [2], 3.35 µM and 10.6 µM; in [3] it was 5.58 µM and 11.6 µM; in assay [4], 3.06 µM and 11.7 µM; in assay [5], 3.38 µM and 7.11 µM; in assay [6], 2.45 µM and 7.55 µM. In addition, the TGI in assay [1] is 7.15 µM and 9.9 µM; in assay [2] it was 11.5 µM and 23.2 µM; in assay [3], > 60.7 µM and 33.1 µM; in assay [4], 30.7 µM and 46.7 µM; in [5] it was 33.2 µM and 88.7 µM; in assay [6], 10.2 µM and 39 µM. Further, the TGI was 8.22 µM and 17 µM in assay [7]; > 45.9 µM and 23.6 µM in assay [8]; more than 100 µM in assay [9]; 15.6 µM and 33.9 µM in [10]; > 40.5 µM and 20.8 µM in assay [11].
For the compound `CC1=C(OC2OC(CO)C(O)C(O)C2O)C(=O)C[C@H]2C1=CC[C@@H]1[C@@]2(C)C(=O)C[C@]2(C)[C@@H]([C@@](C)(O)C(=O)CCC(C)(C)O)[C@H](O)C[C@@]12C` (stereo not given in full), the TGI in assay [1], in [2], in assay [3], in assay [4], in [5] and in assay [7] was more than 100 µM throughout. The TGI in assay [8], in [9], in assay [10], in assay [11] and in assay [12] was more than 100 µM in each case.
With `CCOC(=O)n1cncc1CC(NC(=O)Cc1c(C(=O)C=C(C)C)[nH]c2ccccc12)C(=O)OC` (stereo not given), the TGI in [1] was 47.3 µM; in assay [2], 68.2 µM; in [3], 36.1 µM; in assay [4], 26.4 µM; in assay [5] it was 45.3 µM; in [6] it was more than 100 µM. Also, the TGI came out at 44 µM in [7]; 33.6 µM in assay [8]; 35.9 µM in assay [9]; 33.9 µM in assay [10]; 35.5 µM in [11].
For `O=C1N=C(c2ccccc2)O/C1=C\c1ccccc1`, the TGI in [1], in assay [2], in assay [3], in assay [4], in assay [5] and in assay [6] was more than 100 µM in each case. The TGI in [7], in assay [8], in assay [9], in [11] and in assay [12] was more than 100 µM in each case.
In the case of `C=C(C)[C@@H]1CC[C@]2(C(=O)O)CC[C@]3(C)[C@H](CC[C@@H]4[C@@]5(C)CC[C@H](C(=O)/C=C/c6ccc(O)cc6)C(C)(C)[C@@H]5CC[C@]43C)[C@@H]12`, the TGI in assay [1] was 51.6 µM; in [2], 20.8 µM; in assay [3], 23 µM; in assay [4], 29.2 µM; in [5], more than 100 µM; in assay [7], 12.7 µM. Further, the TGI was determined as 19 µM in assay [8]; 18.1 µM in assay [9]; 24.4 µM in assay [10]; 21.7 µM in [11]; 27.8 µM in assay [12].
Take `CN(C)CCNc1ccc2c(=O)n(CCN(C)C)c(=O)n3c4ccc(N)cc4c(=O)c1c23`: the TGI in assay [1] worked out at 0.161 µM; in [2], 0.215 µM; in assay [3], 0.866 µM; in assay [4] it was 0.87 µM; in assay [5], 0.599 µM; in [7], 0.278 µM. Moreover, the TGI in assay [8] was determined as 0.477 µM; in assay [9] it was 2.08 µM; in assay [10], 0.593 µM; in [11], 1.07 µM; in assay [12], 1.15 µM.
On to `C=C[C@H]1CN2CCc3c([nH]c4c([C@H]5CCCN5C)c(O)ccc34)[C@@H]2C[C@@H]1C[C@H]1c2[nH]c3ccccc3c2CCN1C`, for which the TGI in assay [1] was 5.32 µM; in assay [2] it was 3.56 µM; in assay [3], 3.41 µM; in [4] it was 2.82 µM; in assay [5], 3.08 µM; in assay [7] it was 0.564 µM. Moreover, the TGI in [8] turned out to be 3.11 µM; in assay [9], 3 µM; in [10] it was 3.34 µM; in [11], 3.25 µM; in [12] it was 3 µM. The GI50 in assay [7] was 0.0562 µM.
On to `CCOC(=O)c1nc2ccc(C(F)(F)F)cc2nc1Oc1ccc(F)cc1`, for which the TGI in assay [1], in assay [2], in assay [3], in assay [4], in assay [6] and in [7] was more than 100 µM throughout. Moreover, the TGI in assay [8], in [9], in assay [10], in [11] and in [12] was more than 100 µM throughout.
